{"source": "patent US20130189255A1", "about": "“FUSIONS AND CONJUGATES OF INSULINOTROPIC AGENTS” (GLAXO GROUP LIMITED, priority 2008, published 2013)", "key": {"[1]": {"parameters": "species or system cynomolgus monkey (Macaca fascicularis)", "conditions": "cynomolgus monkey, in vivo, 0.1 mg/kg", "protocol": "Briefly, protein was purified using batch absorption to protein L-agarose affinity resin followed by elution with glycine at pH 2.0 and neutralisation woth Tris PH 8.0. This was followed by ion exchange chromotography on a Resource S column using a 0-1M salt gradient in 20 mM acetate pH5.0. Fractions containing the desired protein were then combined and buffer exchanged into 100 mM NaCl, 20 mM citrate pH6.2. Protein was extensively QCed (including SDS-PAGE, mass spec, activity assay:GLP-1R-BA, pH check, osmolarity check), filter sterilised and endotoxin removed. Protein with confimed low endotoxin (<0.05 EU/mg protein) was then used for the in vivo study. Six female cynomolgus monkeys (Macaca fascicularis; Charles River Laboratories BRF, Houston, Tex., Primate Products, Miami, Fla. and/or Covance Research Products, Inc., Alice, Tex.) were used in this study. The monkeys were approximately 2 to 9 years old (with a body weight range of approximately 2 to 5 kilograms) at initiation of dosing. The monkeys were housed individually in stainless-steel cages in an environmentally controlled room(s) (64 F to 84 F; 30 to 70% relative humidity) with a 12-hour light/dark cycle. The female monkeys were offered approximately 6 biscuits twice daily of Monkey Diet #5038 (PMI Nutrition International, Richmond, Ind.) and a daily allotment of fresh fruit. […] Dose was at 0.1 mg/Kg. On the days of dosing, the first feeding occurred within approximately 1 hour post dose for each monkey (extended up to 2.5 hours post dose if study-related procedures required animals to be out of their local housing for an extended period of time). The second feeding was no sooner then two hours following the first feeding. For the purpose of environmental enrichment, additional fruit, legume and/or vegetable (e.g., grapes, baby carrots, peanuts) was provided to each monkey at or around the time of viability check or as a method of reward after acclimation or study-related procedures. Filtered tap water (supplied by Aqua Pennsylvania, Inc. and periodically analyzed) was available ad libitum. Plasma samples (approx 2 ml) were collected from the femoral vessel at predose (0 hour) and nominally at 5 minutes (iv group only), 0.5, 4, 8, 24, 48, 96, 144, 192, 288, 336, 504 and 672 hours after dosing. (PK samples from one of the animals in the iv dose group were only collected to 24 h so this animal has been excluded from the PK fitting). Analysis of samples was by mass spectrometry, and fitting of the data was using WinNonLin fitting software. PK parameters were as follows for iv administration (n=2): T1/2 67 h, MRT 46 h, Vz 327 ml/Kg and Cl 3.3 ml/hr/Kg; and for sc administration (n=3): T1/2 68 h, MRT 98 h, Vz 306 ml/Kg and Cl 3.1 ml/hr/Kg. Bioavailability was calculated as 99%."}, "RSA": {"target": "RSA (Rattus norvegicus, UniProt P02770)", "sequence (P02770 25-608)": "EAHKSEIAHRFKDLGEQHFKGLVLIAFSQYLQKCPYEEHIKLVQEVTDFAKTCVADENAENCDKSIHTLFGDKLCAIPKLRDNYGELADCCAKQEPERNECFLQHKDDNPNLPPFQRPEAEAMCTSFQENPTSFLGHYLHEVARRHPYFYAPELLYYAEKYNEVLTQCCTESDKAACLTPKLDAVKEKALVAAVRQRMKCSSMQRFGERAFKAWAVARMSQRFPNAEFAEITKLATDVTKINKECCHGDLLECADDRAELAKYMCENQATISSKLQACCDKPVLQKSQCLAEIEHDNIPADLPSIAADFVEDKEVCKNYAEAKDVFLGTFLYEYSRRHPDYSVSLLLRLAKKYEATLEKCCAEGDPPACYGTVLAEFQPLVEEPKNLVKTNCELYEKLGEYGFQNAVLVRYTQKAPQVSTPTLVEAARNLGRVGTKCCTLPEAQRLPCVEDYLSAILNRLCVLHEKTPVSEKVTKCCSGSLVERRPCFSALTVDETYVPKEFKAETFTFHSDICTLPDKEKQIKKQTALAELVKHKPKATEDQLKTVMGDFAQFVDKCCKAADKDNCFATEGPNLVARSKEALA", "test": "Surface plasmon resonance (Biacore, streptavidin chip with biotinylated serum albumin), RSA", "assay_type": "binding", "conditions": "Biacore SA chip, HBS-EP buffer; read-out: Affinity (KD) to RSA", "protocol": "(§1) The analysis was performed using a streptavidin chip (SA) coated with biotinylated serum albumin. 200-1000 resonance units (RUs) of each serum albumin was immobilised on the chip. Flow cell 1 was uncoated, flow cell 2 was coated with HSA, flow cell 3 was coated with RSA and flow cell 4 was coated with CSA. A range of concentrations of fusion was prepared (in the range 15.6 nM to 2 μM by dilution into BIACORE HBS-EP buffer (0.01M HEPES, pH7.4, 0.15M NaCl, 3 mM EDTA, 0.005% surfactant P20) and flowed across the BIACORE chip.\n(§2) Affinity (KD) was calculated from the BIACORE traces by fitting on-rate and off-rate curves to traces generated by concentrations of dAb in the region of the KD."}, "HSA": {"target": "HSA (Homo sapiens, UniProt P02768)", "assay_type": "binding", "protocol": "as §1, §2"}, "db/db mice": {"test_system": "db/db mice", "test": "Oral glucose tolerance test (OGTT) in db/db mouse model of type II diabetes", "assay_type": "in vivo", "from_the_text": "Animals were sorted by decreasing glucose levels three days prior to the start of the experiment and then blocked. One animal within each block was then assigned to each of the 26 study groups. This ensured similar mean starting glucose level in each of the study groups."}, "[2]": {"test_system": "diet induced obese (DIO) mice", "test": "Diet induced obese (DIO) mouse model of obesity", "assay_type": "in vivo", "conditions": "0.01, 0.1, 1 mg/Kg sc, 10 days, compared to DOM7h-14 control", "protocol": "This may be predictive for humans. Male C57B1/6 mice (purchased from Taconic) were fattened on 60% kcal high fat irradiated diet for 12 wks and then transferred to the in-house facility. Upon arrival, the mice were individually housed on alpha-dri bedding in a temperature and humidity controlled room (70-72° F., Humidity=48-50%, 5 AM/5 PM light cycle). The diet was changed to 45% high fat diet and the animals acclimated for 18 days. Prior to administration of test compound, mice were injected subcutaneously with saline once daily for three days and food consumption monitored. Mice were blocked and grouped such that body weight and food consumption were not different between or within groups.\nDaily food consumption and body weight were measured daily for 10 days. […] It was therefore concluded that the data from this mouse study supports the hypothesis that DAT0115 would be a good clinical candidate."}, "[3]": {"conditions": "rat, in vivo", "protocol": "This was followed by ion exchange chromotography on a Resource S column using a 0-1M salt gradient in 20 mM acetate pH5.0. Fractions containing the desired protein were then combined and buffer exchanged into 100 mM NaCl, 20 mM citrate pH6.2. Protein was filter sterilised, buffer exchanged and Qced prior to use in vivo.\nCalculated plasma levels were then used to fit pharmacokinetic parameters using WinNonLin software. Half life after subcutaneous and intravenous administration and bioavailability is outlined in the table 8 below. It was concluded from the results that all three compounds show desirable pharmacokinetic parameters in rat."}}, "note": "Read-outs that look alike come from different tables or passages of the source. Marks after values point to notes of the source that are not given here.", "data": [{"substance": "Exendin 4 (G4S linker)3 DOM7h-14 dAb fusion [DAT0115]", "values": [{"measurement": "Bioavailability", "setting": "[1]", "result": 99, "unit": "%"}, {"measurement": "Cl", "setting": "[1]; iv", "result": 3.3, "unit": "mL/h/kg"}, {"measurement": "MRT", "setting": "[1]; iv", "result": 46, "unit": "h"}, {"measurement": "T1/2", "setting": "[1]; iv", "result": 67, "unit": "h"}, {"measurement": "Vz", "setting": "[1]; iv", "result": 0.327, "unit": "L/kg"}, {"measurement": "Cl", "setting": "[1]; sc", "result": 3.1, "unit": "mL/h/kg"}, {"measurement": "MRT", "setting": "[1]; sc", "result": 98, "unit": "h"}, {"measurement": "T1/2", "setting": "[1]; sc", "result": 68, "unit": "h"}, {"measurement": "Vz", "setting": "[1]; sc", "result": 0.306, "unit": "L/kg"}, {"measurement": "Kd", "setting": "RSA", "result": 2, "unit": "µM"}, {"measurement": "Kd", "setting": "HSA", "result": 0.6, "unit": "µM"}, {"measurement": "timepoints out to which glucose AUC was significantly decreased compared to vehicle", "setting": "db/db mice; 0.1 mg/Kg and 0.3 mg/Kg doses sc", "result": "≤ 24", "unit": "h"}, {"measurement": "percentage reduction in glucose AUC compared to vehicle", "setting": "db/db mice; 0.1 mg/kg sc, OGTT +5 hrs relative to dosing", "result": 60, "unit": "%*"}, {"measurement": "percentage reduction in glucose AUC compared to vehicle", "setting": "db/db mice; 0.1 mg/kg sc, OGTT +24 hrs", "result": 36, "unit": "%*"}, {"measurement": "percentage reduction in glucose AUC compared to vehicle", "setting": "db/db mice; 0.1 mg/kg sc, OGTT +48 hrs", "result": 28, "unit": "%"}, {"measurement": "percentage reduction in glucose AUC compared to vehicle", "setting": "db/db mice; 0.1 mg/kg sc, OGTT +72 hrs", "result": 16, "unit": "%"}, {"measurement": "percentage reduction in glucose AUC compared to vehicle", "setting": "db/db mice; 0.1 mg/kg sc, OGTT +96 hrs", "result": "−12", "unit": "%"}, {"measurement": "percentage reduction in glucose AUC compared to vehicle", "setting": "db/db mice; 0.3 mg/kg sc, OGTT +24 hrs", "result": 59, "unit": "%*"}, {"measurement": "percentage reduction in glucose AUC compared to vehicle", "setting": "db/db mice; 0.3 mg/kg sc, OGTT +48 hrs", "result": 26, "unit": "%"}, {"measurement": "percentage reduction in glucose AUC compared to vehicle", "setting": "db/db mice; 0.3 mg/kg sc, OGTT +72 hrs", "result": 26, "unit": "%"}, {"measurement": "timepoints out to which glucose AUC was significantly decreased compared to vehicle", "setting": "db/db mice; 1 mg/Kg dose sc", "result": "≤ 72", "unit": "h"}, {"measurement": "percentage reduction in glucose AUC compared to vehicle", "setting": "db/db mice; 1 mg/kg sc, OGTT +5 hrs", "result": 76, "unit": "%*"}, {"measurement": "percentage reduction in glucose AUC compared to vehicle", "setting": "db/db mice; 1 mg/kg sc, OGTT +24 hrs", "result": 50, "unit": "%*"}, {"measurement": "percentage reduction in glucose AUC compared to vehicle", "setting": "db/db mice; 1 mg/kg sc, OGTT +48 hrs", "result": 37, "unit": "%*"}, {"measurement": "percentage reduction in glucose AUC compared to vehicle", "setting": "db/db mice; 1 mg/kg sc, OGTT +72 hrs", "result": 41, "unit": "%*"}, {"measurement": "percentage reduction in glucose AUC compared to vehicle", "setting": "db/db mice; 1 mg/kg sc, OGTT +96 hrs", "result": 12, "unit": "%"}, {"measurement": "body weight", "setting": "[2]", "result": "dose dependent reduction"}, {"measurement": "food consumption", "setting": "[2]", "result": "dose dependent reduction"}, {"measurement": "Bioavailability", "setting": "[3]", "result": 81, "unit": "%"}, {"measurement": "Half-life after intravenous administration", "setting": "[3]; iv, 0.3 mg/kg", "result": 4.9, "unit": "h"}]}]}
